# Measured values published in ChEMBL document CHEMBL2150910, “Initial Optimization of a New Series of γ-Secretase Modulators Derived from a Triterpene Glycoside” (ACS Med Chem Lett, 2012).
# Tests used:
# [1] = Drug level in CD1 mouse brain at 100 mg/kg, po after 2 hrs; assay type: ADME, organism-based; parameters: dose 100 mg/kg, route oral; conditions: read-out: Drug uptake
# [2] = Inhibition of gamma-secretase-mediated amyloid beta-38 production in diluted 2B7 conditioned media after 5 hrs
# [3] = Half life in CD1 mouse at 30 mg/kg, po; assay type: ADME, organism-based; parameters: dose 30 mg/kg, route oral; conditions: in vivo
# [4] = Inhibition of gamma-secretase-mediated amyloid beta-42 production in diluted 2B7 conditioned media after 5 hrs
# [5] = target: Gamma-secretase (Homo sapiens) (UniProt Q96BI3+Q9NZ42+Q8WW43+P49768+Q92542+P49810); assay: Selectivity ratio of IC50 for gamma-secretase-mediated notch processing in human SUP-T1 cells to IC50 for gamma-secretase-mediated amyloid beta-42 production; assay type: cell-based
# [6] = Ratio of drug level in brain to plasma in CD1 mouse at 30 mg/kg, po; assay type: ADME, organism-based; parameters: dose 30 mg/kg, route oral; conditions: read-out: BPR
# [7] = Drug level in CD1 mouse brain at 100 mg/kg, po after 6 hrs; assay type: ADME, organism-based; parameters: dose 100 mg/kg, route oral; conditions: read-out: Drug uptake
# [8] = AUC in CD1 mouse at 30 mg/kg, po; assay type: ADME, organism-based; parameters: dose 30 mg/kg, route oral; conditions: plasma
# [9] = Dissociation constant, pKa of the compound; assay type: physicochemical
# [10] = Metabolic stability in CD1 mouse liver microsomes assessed as compound remaining at 1 uM after 60 mins in presence of NADPH; assay type: ADME, Microsome; conditions: read-out: Stability
# [11] = Drug level in CD1 mouse brain at 100 mg/kg, po after 4 hrs; assay type: ADME, organism-based; parameters: dose 100 mg/kg, route oral; conditions: read-out: Drug uptake
# [12] = Plasma concentration in CD1 mouse at 100 mg/kg, po after 2 hrs; assay type: ADME, organism-based; parameters: dose 100 mg/kg, route oral
# [13] = Inhibition of gamma-secretase-mediated amyloid beta-40 production in diluted 2B7 conditioned media at 20 uM after 5 hrs
# [14] = Clearance in CD1 mouse at 1 mg/kg, iv; assay type: ADME, organism-based; parameters: dose 1 mg/kg, route intravenous; conditions: in vivo
# [15] = Inhibition of gamma-secretase-mediated amyloid beta-40 production in diluted 2B7 conditioned media after 5 hrs
# [16] = Volume of distribution in CD1 mouse at 1 mg/kg, iv; assay type: ADME, organism-based; parameters: dose 1 mg/kg, route intravenous; conditions: in vivo
# [17] = Inhibition of gamma-secretase-mediated total amyloid beta production in diluted 2B7 conditioned media at 20 uM after 5 hrs
# [18] = Metabolic stability in CD1 mouse liver microsomes assessed as compound remaining at 1 uM after 60 mins in absence of NADPH; assay type: ADME, Microsome; conditions: read-out: Stability
# [19] = Plasma concentration in CD1 mouse at 100 mg/kg, po after 4 hrs; assay type: ADME, organism-based; parameters: dose 100 mg/kg, route oral
# [20] = Oral bioavailability in CD1 mouse at 30 mg/kg; assay type: ADME, organism-based; conditions: in vivo
# [21] = Plasma concentration in CD1 mouse at 100 mg/kg, po after 6 hrs; assay type: ADME, organism-based; parameters: dose 100 mg/kg, route oral
# [22] = Half life in CD1 mouse at 1 mg/kg, iv; assay type: ADME, organism-based; parameters: dose 1 mg/kg, route intravenous; conditions: in vivo
# [23] = Inhibition of gamma-secretase assessed as ratio of amyloid beta-40 to amyloid beta-42 production in diluted 2B7 conditioned media after 5 hrs
# [24] = target: Gamma-secretase; assay: Inhibition of gamma-secretase-mediated notch processing in human SUP-T1 cells after 1 hr by luminescent assay; assay type: cell-based
smiles,measurement,setting,value
CC(=O)O[C@@H]([C@H]1C[C@@H](C)[C@H]2[C@H](O1)[C@H](O)[C@@]1(C)[C@@H]3CC[C@H]4C(C)(C)[C@@H](O[C@H]5CN(C6COC6)CCO5)CC[C@@]45C[C@@]35CC[C@]21C)C(C)(C)O,concentration at 2 h,[1],103 ng/g
same,IC50,[2],300 nM
same,half-life,[3],2.3 h
same,IC50,[4],170 nM
same,Ratio IC50,[5],> 70
same,Kp,[6],0.23
same,concentration at 6 h,[7],163 ng/g
same,AUC,[8],1010 ng·h/mL
same,pKa,[9],4.6
same,"remaining at 1 h, 1 µM",[10],1%
same,concentration at 4 h,[11],185 ng/g
same,concentration at 2 h,[12],279 ng/mL
same,inhibition,[13],41%
same,clearance,[14],55 mL/min/kg
same,IC50,[15],14100 nM
same,Vd,[16],0.6 L/kg
same,inhibition,[17],44%
same,"remaining at 1 h, 1 µM",[18],1%
same,concentration at 4 h,[19],420 ng/mL
same,bioavailability,[20],11%
same,concentration at 6 h,[21],453 ng/mL
same,half-life,[22],0.3 h
same,Ratio,[23],52
same,IC50,[24],> 20000 nM
